Test results: PMC3257078, “Predicting Antitumor Activity of Peptides by Consensus of Regression Models Trained on a Small Data Sample” (International Journal of Molecular Sciences, 2011)
Where two headings read alike, the source gives them in different places.

How the values were obtained:
SW 620 (colon carcinoma) [1] = details: c = 10^-4 M, cited from earlier work
From the text: Table 3 Growth inhibition effects of OGF-related peptides. | column: PG(%) ^a / SW620

[2] = system: HeLa (cervical carcinoma); details: c = 10^-4 M, cited from earlier work
From the text: Table 3 Growth inhibition effects of OGF-related peptides. | column: PG(%) ^a / HeLa

MCF-7 (breast carcinoma) [3] = details: c = 10^-4 M, cited from earlier work
From the text: Table 3 Growth inhibition effects of OGF-related peptides. | column: PG(%) ^a / MCF-7

[4] = Oxidation of Met residues to sulfoxide during acid Boc deprotection; assay type: physicochemical; details: cold TFA-H2O (9:1), ice bath, 5 min, full scan MS: only traces of 11 (m/z 750), oxidized forms m/z 766, 782, 798
Description: Synthesis of methionine rich peptides 10–14 was based on the 2 + 2 and 2 + 3 coupling between Boc-protected dipeptides 1–4 and H-Met-Met-OH or H-Met-Met-Met-OH (Scheme 1). Different methods of peptide bond formation were tested; finally peptides 5–7 were obtained by the DCC/HOSu method, activation with HATU yielded Ada-containing pentapeptide 8, while pentapeptide 9 was obtained by the mixed anhydride method (details in the Experimental section). Finally, deprotection of the Boc group was performed by acid hydrolysis and extra precautions were taken due to the known susceptibility of methionine residue toward acid-promoted oxidation to sulfoxide. Therefore, deprotection step was performed in ice bath, crude product was immediately purified by the HPLC and residual acid removed by passing through the short C18 column. […] During the purification procedure, only oxidized product 15 was isolated. All prepared compounds were characterized by NMR spectroscopy and deprotected compounds 10 and 12–15 additionally by tandem mass spectrometry and HRMS. The main feature of MS/MS spectra of the molecular [M + H]^+ ions of all peptides is high abundance of Y” and B-type fragment ions (Figure S1, Supplementary Information).
Boc-protected peptides 5–9 were treated with cold TFA-H2O (9:1) mixture in ice bath for 5 min. […]

MCF-7 (breast carcinoma) [5] = test: Proliferation assay (MTT), MCF-7 cells; assay type: cell-based; details: c = 10^-4 M, 72 h incubation, absorbance 570 nm, quadruplicate in three individual experiments
From the text: (§1) Peptides 10, 12–14 as well as trisulfoxide derivative 15 were screened for possible antiproliferative effects on three cell lines: SW 620 (colon carcinoma), MCF-7 (breast carcinoma) and HeLa (cervical carcinoma), according to the previously published procedure. Table 3 summarizes activities found for tested peptides, expressed as percentage of growth (PG) of three cell lines, together with values for OGF and three OGF-related peptides proposed by the SVM radial basis function kernel (RBF). […] Therefore, the approach presented here managed to select peptides with improved biological activities from virtual library.
(§2) The biological potential of prepared compounds has been tested in the Laboratory for experimental therapy (Ruđer Bošković Institute) following the previously published procedure. Briefly, MCF-7, SW 620 and HeLa cells were cultured as monolayers and maintained in Dulbecco’s modified Eagle medium (DMEM), supplemented with 10% fetal bovine serum (FBS), 2mM L-glutamine, 100 U/mL penicillin and 100 μg/mL streptomycin in a humidified atmosphere with 5% CO2 at 37 °C. The panel cell lines were inoculated onto a series of standard 96-well microtiter plates on day 0, at 1 × 10^4 to 3 × 10^4 cells/mL, depending on the doubling times of specific cell line. Test agents were then added in five, 10-fold dilutions (10^−8 to 10^−4 M) and incubated for a further 72 hours. Working dilutions were freshly prepared on the day of testing. The solvent was also tested for eventual inhibitory activity by adjusting its concentration to be the same as in working concentrations. After 72 hours of incubation the cell growth rate was evaluated by performing the MTT assay. For this purpose the substance treated medium was discarded and MTT was added to each well at a concentration of 20 μg/40 μL. After four hours of incubation the precipitates were dissolved in 160 μL of dimethylsulphoxide (DMSO). The absorbance that is directly proportional to the number of living, metabolically active cells was measured on a microplate reader at 570 nm. Each test point was performed in quadruplicate in three individual experiments.

SW 620 (colon carcinoma) [6] = test: Proliferation assay (MTT), SW 620 cells; assay type: cell-based; details: c = 10^-4 M, 72 h incubation, absorbance 570 nm, quadruplicate in three individual experiments
From the text: as §1, §2

[7] = system: HeLa (cervical carcinoma); test: Proliferation assay (MTT), HeLa cells; assay type: cell-based; details: c = 10^-4 M, 72 h incubation, absorbance 570 nm, quadruplicate in three individual experiments
From the text: as §1, §2

Substance	PG(%) SW620 (percentage of growth) (SW 620 (colon carcinoma) [1]; training set peptides) [%]	PG(%) HeLa (percentage of growth) ([2]; training set peptides) [%]	PG(%) MCF-7 (percentage of growth) (MCF-7 (breast carcinoma) [3]; training set peptides) [%]	PG(%) MCF-7 (percentage of growth) (MCF-7 (breast carcinoma) [5]) [%]	PG(%) SW620 (percentage of growth) (SW 620 (colon carcinoma) [6]) [%]	PG(%) HeLa (percentage of growth) [7] [%]	further results
H-Tyr-(R)-Ada-Gly-OH	87	89	100				
H-Tyr-Ada-Gly-Phe-Phe-OH							PG(%) SW620 (percentage of growth) (SW 620 (colon carcinoma) [1]): 38%; PG(%) HeLa (percentage of growth) [2]: 71%; PG(%) MCF-7 (percentage of growth) (MCF-7 (breast carcinoma) [3]): 81%
H-Phe-Ada-Met-Met-Met-OH [Compound 11, Ada-containing pentapeptide, only traces seen; oxidized to 15 during deprotection]							Susceptibility of Met residues to oxidation (sulfoxide formation) [4]: extreme susceptibility to oxidation
H-Phe-Ada-Met(O)-Met(O)-Met(O)-OH [Compound 15]				82	77	64	
H-Tyr-Gly-Gly-Phe-Met-OH [OGF, native opioid growth factor (OGF), Met-enkephalin]				92	85	88	
H-Phe-Gly-Met-Met-Met-OH [Compound 12]				86	95	86	
H-Phe-Ala-Met-Met-Met-OH [Compound 10]				74	100	88	
H-Tyr-Ada-Gly-Phe-Met-OH	85	85	100				
H-Tyr-Ala-Met-Met-Met-OH [Compound 14]				71	97	91	
H-Phe-Ada-Gly-Phe-Phe-OH							PG(%) SW620 (percentage of growth) (SW 620 (colon carcinoma) [1]): 39%; PG(%) HeLa (percentage of growth) [2]: 23%; PG(%) MCF-7 (percentage of growth) (MCF-7 (breast carcinoma) [3]): 41%
H-Tyr-(R)-Ada-OH	88	97	99				
H-Phe-Ala-Met-Met-OH [Compound 13]				68	86	71	
H-Tyr-(S)-Ada-Gly-OH	85	90	100				
H-Phe-Ada-Gly-Phe-Met-OH							PG(%) SW620 (percentage of growth) (SW 620 (colon carcinoma) [1]): 35%; PG(%) HeLa (percentage of growth) [2]: 49%; PG(%) MCF-7 (percentage of growth) (MCF-7 (breast carcinoma) [3]): 39%
H-Tyr-(S)-Ada-OH	72	92	100				
